{
  "source": "patent US20260115336A1",
  "about": "“MOFS WITH BETA-EMITTERS FOR RADIOTHERAPY” (Node Pharma AS, priority 2023, published 2026)",
  "key": {"[1]": {"assay": "Retention of Lu177 in the MOF in serum, iTLC", "type": "in vitro ADME", "conditions": "fetal bovine serum, after 30 minutes", "description": "(§1) Radiolabelling was performed by adding 60 kBq of [^177Lu]LuCl3 solution to a 400 μL suspension of UiO-66-(COOH)2 (0.6 mg) in 0.005 mol/L MES buffer (pH 6). A control sample consisting of 60 kBq [^177Lu]LuCl3 in 0.005 mol/L MES buffer was prepared in parallel. The samples were kept at 37° C., under agitation for 24 hours. 35 μL of each sample was dispersed in 400 μL of fetal bovine serum. After 30 minutes, both the radiolabelled-dose and the serum-dose suspensions were subjected to instant thin layer chromatography (iTLC) under the following conditions: 5 μL drops were placed on glass fiber iTLC strips, which were then placed in a TLC chamber with 20 mM sodium citrate (pH 6.5) as mobile phase. Upon completion, the application point and the top of the iTLC strip were measured separately using a Hidex gamma counter."}, "[2]": {"assay": "Lu177 radiolabelling (adsorption) of the MOF, iTLC", "type": "physicochemical", "conditions": "60 kBq [177Lu]LuCl3, 0.005 mol/L MES buffer pH 6, 37° C., 24 hours", "description": "as §1"}},
  "data": [
    {"compound": "[Cl][Lu]([Cl])[Cl]", "note": "[LuCl3, [^177Lu]LuCl3]", "values": [
      {"measurement": "Serum retention (retention of Lu in serum)", "setting": "[1]", "value": 3, "unit": "%"},
      {"measurement": "Labelling, RCP (radiochemical purity)", "setting": "[2]", "value": 1, "unit": "%"}
    ]}
  ]
}
